Data: patent US7868135B2, “Compositions of lipopeptide antibiotic derivatives and methods of use thereof” (priority 2003, dated 2011)
Starred links: 1 amine or outer side, 2 acyl side, 3 side chain; linkers in the order of their positions; H or OH if unused. Positions of bridges follow the written chain, without caps; N, C: chain ends. Non-standard residues stand in square brackets, D forms with d. Residues, ends and D or L forms follow the SMILES beside them. ξ: configuration not given here. *: point of attachment. X33 = CCCCCCCCCCCC(=O)Nc1cc(NC(=O)CCCCCCCCCCC)cc(C(=O)*)c1; X6 = CC(NC(=O)C12CC3CC(CC(C3)C1)C2)C(N[*:1])C(=O)[*:2]; X25 = CC(NC(=O)[C@@H]1CCC(=O)N1)C(N[*:1])C(=O)[*:2]; X28 = CCCCCCCC(=O)Nc1cc(NC(=O)CCCCCCC)cc(C(=O)*)c1; Adamantane1carbonyl = O=C(C12CC3CC(CC(C3)C1)C2)*; X17 = CSC[C@H](N)C(=O)NC(C)C(N[*:1])C(=O)[*:2]; X42 = CC(NC(=O)CNCc1ccccc1)C(N[*:1])C(=O)[*:2]; ξAbu(βξ-NH2) = CC(N[*:3])C(N[*:1])C(=O)[*:2]; Pentadecanoyl = CCCCCCCCCCCCCCC(=O)*; ξAsp(βξ-Me) = CC(C(=O)O)C(N)C(=O)O; ξAbu(3ξ-NH2) = CC(N)C(N)C(=O)O; Octanoyl = CCCCCCCC(=O)*; Pip = O=C(O)[CH]1CCCCN1; ξD = NC(CC(=O)O)C(=O)O; ξPip = O=C(O)C1CCCCN1; ξV = CC(C)C(N)C(=O)O; ξP = O=C(O)C1CCCN1

These compounds were tested on Staphylococcus aureus (MSSA). Conditions: 24 h.
Experimental: (“Approved Standard M7-A3”).
The antimicrobial lipopeptide derivatives described herein were tested for antimicrobial activity against Gram-positive bacteria as follows. The minimum inhibitory concentrations (MIC) of the antimicrobial lipopeptide derivatives of the invention were determined using NCCLS guidelines M7-A6 (2003) with a slight modification in that doubling serial dilutions were used to dilute the test compounds. The broth phase microdilution method was used. Isolated colonies of Staphylococcus aureus (MSSA) from an 18-24 hour blood agar plate cultures were used to inoculate cation adjusted Mueller-Hinton broth (CAMHB) supplemented with 0.625 mM calcium. […] A negative control containing media alone and a positive growth control containing bacteria with media alone were also included. MICs were determined after incubating the plates at about 37° C. for 24 hours. […] In Tables 1 to 16, R is the core cyclic peptide of amphomycin or aspartocin, which can be in the form of a β-isomer, an anhydro, a dianhydro, or any combination thereof. […] Furthermore, a person of skill in the art will appreciate that all the pounds, or groups of compounds, derived from the various combinations of and substituents shown in Tables 1 to 16, are disclosed by the present the same extent as if each compound or group of compounds was set forth individually.
Compound `CCCCCCCCCCCCCCC(=O)NC(CC(=O)O)C(=O)NC1C(=O)N2CCCCC2C(=O)NC(C(C)C(=O)O)C(=O)NC(CC(=O)O)C(=O)NCC(=O)NC(CC(=O)O)C(=O)NCC(=O)NC(C(C)NC(=O)[C@H](N)Cc2ccc(O)cc2)C(=O)NC(C(C)C)C(=O)N2CCCC2C(=O)NC1C` (stereo partly drawn) [Compound 263, C15-Amphomycin-(D-Tyr)] has an MIC of 32 µg/mL.
In the case of `CCCCCCCCCCCCCCC(=O)NC(CC(=O)O)C(=O)NC1C(=O)N2CCCCC2C(=O)NC(C(C)C(=O)O)C(=O)NC(CC(=O)O)C(=O)NCC(=O)NC(CC(=O)O)C(=O)NCC(=O)NC(C(C)NC(=O)[C@@H](N)CCC)C(=O)NC(C(C)C)C(=O)N2CCCC2C(=O)NC1C` (stereo partly drawn) [Compound 163, C15-Amphomycin-9-Nvl], the MIC is reported as 8 µg/mL.
In the case of `CC(C)C1NC(=O)C(C(C)N)NC(=O)CNC(=O)C(CC(=O)O)NC(=O)CNC(=O)C(CC(=O)O)NC(=O)C(C(C)C(=O)O)NC(=O)C2CCCCN2C(=O)C(NC(=O)C(CC(=O)O)NC(=O)C23CC4CC(CC(C4)C2)C3)C(C)NC(=O)C2CCCN2C1=O` (stereo not drawn) [Compound 336] (Adamantane1carbonyl-D[ξAbu(βξ-NH2)][Pip][ξAsp(βξ-Me)]DGDG[ξAbu(3ξ-NH2)]VP; lactam 2-C; configuration not given here), the MIC is reported as greater than 64 µg/mL.
`CCCCCCCCCCCCCCNC(=O)NC(CC(=O)O)C(=O)NC1C(=O)N2CCCCC2C(=O)NC(C(C)C(=O)O)C(=O)NC(CC(=O)O)C(=O)NCC(=O)NC(CC(=O)O)C(=O)NCC(=O)NC(C(C)NC(=O)CN)C(=O)NC(C(C)C)C(=O)N2CCCC2C(=O)NC1C` (stereo not drawn) [Compound 279, CH3—(CH2)13—NH—C(═O)-Amphomycin-9-Gly] was tested, and the MIC was 0.5 µg/mL.
`CCCCCCCCCCCCCCC(=O)NC(CC(=O)O)C(=O)NC1C(=O)N2CCCCC2C(=O)NC(C(C)C(=O)O)C(=O)NC(CC(=O)O)C(=O)NCC(=O)NC(CC(=O)O)C(=O)NCC(=O)NC(C(C)NC(=O)[C@@H]2CCC(=O)N2)C(=O)NC(C(C)C)C(=O)N2CCCC2C(=O)NC1C` (stereo partly drawn) [Compound 373] (Pentadecanoyl-[ξD][ξAbu(βξ-NH2)][ξPip][ξAsp(βξ-Me)][ξD]G[ξD]G[X25][ξV][ξP]; lactam 2-C) showed an MIC greater than 64 µg/mL.
In the case of `CCCCCCCCCCCC(=O)Nc1cc(NC(=O)CCCCCCCCCCC)cc(C(=O)NC(CC(=O)O)C(=O)NC2C(=O)N3CCCCC3C(=O)NC(C(C)C(=O)O)C(=O)NC(CC(=O)O)C(=O)NCC(=O)NC(CC(=O)O)C(=O)NCC(=O)NC(C(C)N)C(=O)NC(C(C)C)C(=O)N3CCCC3C(=O)NC2C)c1` (stereo not drawn) [Compound 320, N,N′-di-C12-(M,M-Diaminobenzoyl)-Amphomycin] (X33-D[ξAbu(βξ-NH2)][Pip][ξAsp(βξ-Me)]DGDG[ξAbu(3ξ-NH2)]VP; lactam 2-C; configuration not given here), the MIC is reported as 2 µg/mL.
`CCCCCCCCCCCCCCC(=O)NC(CC(=O)O)C(=O)NC1C(=O)N2CCCCC2C(=O)NC(C(C)C(=O)O)C(=O)NC(CC(=O)O)C(=O)NCC(=O)NC(CC(=O)O)C(=O)NCC(=O)NC(C(C)NC(=O)[C@@H](N)CC)C(=O)NC(C(C)C)C(=O)N2CCCC2C(=O)NC1C` (stereo partly drawn) [Compound 164, C15-Amphomycin-9-Abu] gave an MIC of 4 µg/mL.
`CCCCCCCC(=O)Nc1cc(NC(=O)CCCCCCC)cc(C(=O)NC(CC(=O)O)C(=O)NC2C(=O)N3CCCCC3C(=O)NC(C(C)C(=O)O)C(=O)NC(CC(=O)O)C(=O)NCC(=O)NC(CC(=O)O)C(=O)NCC(=O)NC(C(C)N)C(=O)NC(C(C)C)C(=O)N3CCCC3C(=O)NC2C)c1` (stereo not drawn) [Compound 305, N,N′-di-C8-(M,M-Diaminobenzoyl)-Amphomycin] (X28-D[ξAbu(βξ-NH2)][Pip][ξAsp(βξ-Me)]DGDG[ξAbu(3ξ-NH2)]VP; lactam 2-C; configuration not given here) gave an MIC of 1 µg/mL.
Work on `CCCCCCCCCCCCCCC(=O)NC(CC(=O)O)C(=O)NC1C(=O)N2CCCCC2C(=O)NC(C(C)C(=O)O)C(=O)NC(CC(=O)O)C(=O)NCC(=O)NC(CC(=O)O)C(=O)NCC(=O)NC(C(C)NC(=O)[C@H](CCCCN)NC(=O)[C@@H](N)CCCCN)C(=O)NC(C(C)C)C(=O)N2CCCC2C(=O)NC1C` (stereo partly drawn) [Compound 194, C15-Amphomycin-9-Lys-Lys] yielded an MIC of 2 µg/mL.
In the case of `CCCCCCCCCCCCCCC(=O)NC(CC(=O)O)C(=O)NC1C(=O)N2CCCCC2C(=O)NC(C(C)C(=O)O)C(=O)NC(CC(=O)O)C(=O)NCC(=O)NC(CC(=O)O)C(=O)NCC(=O)NC(C(C)NC(=O)[C@@H]2CCCCN2)C(=O)NC(C(C)C)C(=O)N2CCCC2C(=O)NC1C` (stereo partly drawn) [Compound 95, C15-Amphomycin-9-hPro], the MIC is reported as 2 µg/mL.
In the case of `CCCCCCCCCCCCCCC(=O)NC(CC(=O)O)C(=O)NC1C(=O)N2CCCCC2C(=O)NC(C(C)C(=O)O)C(=O)NC(CC(=O)O)C(=O)NCC(=O)NC(CC(=O)O)C(=O)NCC(=O)NC(C(C)NC(=O)CCNC(=O)CCCCN)C(=O)NC(C(C)C)C(=O)N2CCCC2C(=O)NC1C` (stereo not drawn) [Compound 173, C15-Amphomycin-9-(β-Ala)-(5-Ava)], the MIC is reported as 1 µg/mL.
For `CCCCCCCCCCCCCCC(=O)NC(CC(=O)O)C(=O)NC1C(=O)N2CCCCC2C(=O)NC(C(C)C(=O)O)C(=O)NC(CC(=O)O)C(=O)NCC(=O)NC(CC(=O)O)C(=O)NCC(=O)NC(C(C)NC(=O)CNC(=O)[C@H](CCCCN)NC(=O)[C@@H](N)CCCCN)C(=O)NC(C(C)C)C(=O)N2CCCC2C(=O)NC1C` (stereo partly drawn) [Compound 191, C15-Amphomycin-9-Gly-Lys-Lys], the MIC was 8 µg/mL.
`CCCCCCCCCCCCCCC(=O)NC(CC(=O)O)C(=O)NC1C(=O)N2CCCCC2C(=O)NC(C(C)C(=O)O)C(=O)NC(CC(=O)O)C(=O)NCC(=O)NC(CC(=O)O)C(=O)NCC(=O)NC(C(C)NC(=O)CNC(=O)[C@@H](N)Cc2ccccc2)C(=O)NC(C(C)C)C(=O)N2CCCC2C(=O)NC1C` (stereo partly drawn) [Compound 28, C15-Amphomycin-9-Gly-Phe] gave an MIC of 2 µg/mL.
For `CCCCCCCCCCCCCCC(=O)NC(CC(=O)O)C(=O)NC1C(=O)N2CCCCC2C(=O)NC(C(C)C(=O)O)C(=O)NC(CC(=O)O)C(=O)NCC(=O)NC(CC(=O)O)C(=O)NCC(=O)NC(C(C)NC(=O)C23CC4CC(CC(C4)C2)C3)C(=O)NC(C(C)C)C(=O)N2CCCC2C(=O)NC1C` (stereo not drawn) [Compound 232, C15-Amphomycin-9-(1-Adamantanylcarbonyl)] (Pentadecanoyl-D[ξAbu(βξ-NH2)][Pip][ξAsp(βξ-Me)]DGDG[X6]VP; lactam 2-C; configuration not given here), the MIC was 4 µg/mL.
For `CCCCCCCC(=O)NCC(=O)NC(CC(=O)O)C(=O)NC1C(=O)N2CCCCC2C(=O)NC(C(C)C(=O)O)C(=O)NC(CC(=O)O)C(=O)NCC(=O)NC(CC(=O)O)C(=O)NCC(=O)NC(C(C)N)C(=O)NC(C(C)C)C(=O)N2CCCC2C(=O)NC1C` (stereo not drawn) [Compound 359, C8-Gly-Amphomycin] (Octanoyl-GD[ξAbu(βξ-NH2)][Pip][ξAsp(βξ-Me)]DGDG[ξAbu(3ξ-NH2)]VP; lactam 3-C; configuration not given here), the MIC was greater than 64 µg/mL.
For `CCCCCCCCCCCCCCC(=O)NC(CC(=O)O)C(=O)NC1C(=O)N2CCCCC2C(=O)NC(C(C)C(=O)O)C(=O)NC(CC(=O)O)C(=O)NCC(=O)NC(CC(=O)O)C(=O)NCC(=O)NC(C(C)NC(=O)[C@@H](N)CCC(=O)O)C(=O)NC(C(C)C)C(=O)N2CCCC2C(=O)NC1C` (stereo partly drawn) [Compound 29, C15-Amphomycin-9-Glu], the MIC was 1 µg/mL.
For `CCCCCCCCCCCCCCC(=O)NC(CC(=O)O)C(=O)NC1C(=O)N2CCCCC2C(=O)NC(C(C)C(=O)O)C(=O)NC(CC(=O)O)C(=O)NCC(=O)NC(CC(=O)O)C(=O)NCC(=O)NC(C(C)NC(=O)[C@@H](N)CSC)C(=O)NC(C(C)C)C(=O)N2CCCC2C(=O)NC1C` (stereo partly drawn) [Compound 162, C15-Amphomycin-9-MeCys] (Pentadecanoyl-[ξD][ξAbu(βξ-NH2)][ξPip][ξAsp(βξ-Me)][ξD]G[ξD]G[X17][ξV][ξP]; lactam 2-C), the MIC was 8 µg/mL.
Compound `CCCCCCCCCCCCCCC(=O)NC(CC(=O)O)C(=O)NC1C(=O)N2CCCCC2C(=O)NC(C(C)C(=O)O)C(=O)NC(CC(=O)O)C(=O)NCC(=O)NC(CC(=O)O)C(=O)NCC(=O)NC(C(C)NC(=O)CNCc2ccccc2)C(=O)NC(C(C)C)C(=O)N2CCCC2C(=O)NC1C` (stereo not drawn) [Compound 245, C15-Amphomycin-9-(N-Benzyl-Gly)] (Pentadecanoyl-D[ξAbu(βξ-NH2)][Pip][ξAsp(βξ-Me)]DGDG[X42]VP; lactam 2-C; configuration not given here) has an MIC of 1 µg/mL.
For `CCCCCCCCCCCCCCC(=O)NC(CC(=O)O)C(=O)NC1C(=O)N2CCCCC2C(=O)NC(C(C)C(=O)O)C(=O)NC(CC(=O)O)C(=O)NCC(=O)NC(CC(=O)O)C(=O)NCC(=O)NC(C(C)NC(=O)CNC(=O)CCCCCN)C(=O)NC(C(C)C)C(=O)N2CCCC2C(=O)NC1C` (stereo not drawn) [Compound 197, C15-Amphomycin-9-Gly-Ahx], the MIC was 0.25 to 0.5 µg/mL.

Same assay, conditions: S. aureus (MSSA), CAMHB supplemented with 0.625 mM calcium, 24 hours at about 37° C.; a range = compound tested multiple times
Work on “CH3—(CH2)7—NH—C(═O)-(M-Phenylacetyl)-Amphomycin [Compound 306]” yielded an MIC of 16 µg/mL.
`CCCCCCCCCCCC(=O)NC(CC(=O)O)C(=O)NC1C(=O)N2CCCCC2C(=O)NC(C(C)C(=O)O)C(=O)NC(CC(=O)O)C(=O)NCC(=O)NC(CC(=O)O)C(=O)NCC(=O)NC(C(C)NC(=O)CNC)C(=O)NC(C(C)C)C(=O)N2CCCC2C(=O)NC1C` (stereo not drawn) [Compound 74, C12-Amphomycin-9-Sar] was tested, and the MIC was 74/4 μg/mL.
For `CCCCCCCCCCCCC(=O)NC(CC(=O)O)C(=O)NC1C(=O)N2CCCCC2C(=O)NC(C(C)C(=O)O)C(=O)NC(CC(=O)O)C(=O)NCC(=O)NC(CC(=O)O)C(=O)NCC(=O)NC(C(C)NC(=O)CN)C(=O)NC(C(C)C)C(=O)N2CCCC2C(=O)NC1C` (stereo not drawn) [Compound 53, C13-Amphomycin-9-Gly], the MIC was 53/8 μg/mL.
“CH3—(CH2)7—NH—C(═O)-(p-Phenylacetyl)-Amphomycin [Compound 288]” showed an MIC of 16 µg/mL.
“(2-Dodecanoylamino-Thiazol-4-yl)Acetyl-Amphomycin [Compound 337]” showed an MIC of 0.25 to 1 µg/mL.
